The source made the active and inactive calls. The calls are words filed in the database; no cut-off is given here.

The values that follow come from ChEMBL document CHEMBL4400555, “Structure-activity relationships of trichothecenes against COLO201 cells and Cochliobolus miyabeanus: The role of 12-epoxide and macrocyclic moieties” (Bioorg Med Chem Lett, 2019).

Assay [1] relates to COLO 201. The experiment in a line: Antiproliferative activity against human COLO201 cells after 24 hrs by WST-1 assay. In kind it is functional, cell-based.
Assay [2] has as its system Bipolaris oryzae. Nature of the assay: Antifungal activity against Cochliobolus miyabeanus 131004 assessed as zone of inhibition at 10 ug/disk after 4 days by paper disk method. In kind it is functional. The settings on record: Bipolaris oryzae, 131004, 96 h; read-out: IZ.
The subject of assay [3] is Bipolaris oryzae. The experiment in a line: Antifungal activity against Cochliobolus miyabeanus 131004 assessed as zone of inhibition at 100 ug/disk after 4 days by paper disk method. In kind it is functional. The settings on record: Bipolaris oryzae, 131004, 96 h; read-out: IZ.
The subject of assay [4] is Bipolaris oryzae. The experiment in a line: Antifungal activity against Cochliobolus miyabeanus 131004 assessed as zone of inhibition at 500 ug/disk after 4 days by paper disk method. The format is functional. The following applies: Bipolaris oryzae, 131004, 96 h; read-out: IZ.
The test system of assay [5] is Bipolaris oryzae. Nature of the assay: Antifungal activity against Cochliobolus miyabeanus 131004 assessed as zone of inhibition at 50 ug/disk after 4 days by paper disk method. The format is functional, organism-based.

Take `CC1=C[C@H]2O[C@@H]3C[C@H]4OC(=O)/C=C\C=C\[C@@H]5O[C@H](C/C(C)=C/C(=O)OC[C@@]2(C[C@@H]1O)[C@]4(C)[C@]31CO1)O[C@H]5C`: the IC50 in assay [1] (colo 201) turned out to be 51 µM.
In the case of `C=C1[C@H]2C[C@H]3OC(=O)/C=C\C=C\[C@@H]4O[C@@H](O[C@H]4C)[C@H](O)/C(C)=C/C(=O)OC[C@@]4(CCC(C)=C[C@H]4O2)[C@]13C`, the IC50 in assay [1] (Homo sapiens, COLO 201, 24 h) was 50 µM. The zone of inhibition at 10 µg/disc in assay [2] was found to be 0 mm. Further, the zone of inhibition at 100 µg/disc in assay [3] is 0 mm. The zone of inhibition at 500 µg/disc in assay [4] was determined as 0 mm.
The molecule `CC1=C[C@H]2O[C@@H]3C[C@H]4OC(=O)/C=C\C=C\[C@@H]5O[C@H](C/C(C)=C/C(=O)OC[C@@]2(CC1)[C@]4(C)[C@]31CO1)O[C@H]5C` registered an IC50 in assay [1] (colo 201) of 82 µM.
In the case of `C=C1[C@H]2C[C@@H](OC(C)=O)[C@]1(C)[C@@]1(C)CCC(C)=C[C@H]1O2`, the IC50 in assay [1] (Homo sapiens, COLO 201, 24 h) was found to be 420 µM. Further, in assay [2], the zone of inhibition at 10 µg/disc turned out to be 0 mm. Also, the zone of inhibition at 100 µg/disc in assay [3] was found to be 0 mm. Moreover, the zone of inhibition at 500 µg/disc in assay [4] turned out to be 0 mm.
Regarding `C=C1[C@H]2C[C@H]3OC(=O)/C=C\C=C\[C@@H]([C@@H](C)O)OCC/C(C)=C/C(=O)OC[C@@]4(CCC(C)=C[C@H]4O2)[C@]13C`, in assay [1] (Homo sapiens, COLO 201, 24 h), half-maximal inhibition (IC50) required 51 µM. In addition, the zone of inhibition at 10 µg/disc in assay [2] came to 0 mm. The zone of inhibition at 100 µg/disc in assay [3] worked out at 0 mm. For the same molecule, in assay [4], the zone of inhibition at 500 µg/disc was 0 mm.
Turning to `C=C1[C@H]2CC[C@]1(C)[C@@]1(CO)[C@H](O)C(=O)C(C)=C[C@H]1O2`, the IC50 in assay [1] (Homo sapiens, COLO 201, 24 h) was greater than 700 µM. Moreover, the zone of inhibition at 10 µg/disc in assay [2] is 0 mm. The “inhibition zone (IZ)” value in assay [5] is “inactive”.
`CC1=C[C@H]2O[C@@H]3[C@H](O)C[C@](C)([C@@]2(CO)[C@H](O)C1=O)[C@]31CO1` [DEOXYNIVALENOL] registered an IC50 in assay [1] (colo 201) of 86 µM.
Turning to `CC1=C[C@H]2O[C@@H]3C[C@H]4OC(=O)/C=C\C=C\[C@@H]5O[C@@H](O[C@H]5C)[C@H](O)/C(C)=C/C(=O)OC[C@@]2(CC1)[C@]4(C)[C@]31CO1`, the IC50 in assay [1] (colo 201) was determined as 42 µM.
With `CC(=O)O[C@@H]1C[C@H]2O[C@@H]3C=C(C)CC[C@]3(C)[C@]1(C)[C@]21CO1`, the IC50 in assay [1] (colo 201) was determined as 123 µM.
Still for that read-out and setting: for `CC1=C[C@H]2O[C@@H]3C[C@H]4OC(=O)/C=C\C=C\[C@@H]([C@@H](C)O)OCC/C(C)=C/C(=O)OC[C@@]2(CC1)[C@]4(C)[C@]31CO1` the value was 47 µM.
For `CC(=O)O[C@H]1C[C@@]23COC(=O)/C=C(\C)C[C@@H]4O[C@@H](C)[C@H](/C=C/C=C\C(=O)O[C@@H]5C[C@@H](O[C@@H]2C=C1C)[C@@]1(CO1)[C@]53C)O4`, the IC50 in assay [1] (colo 201) came to 46 µM.

A word on the IC50: it is the concentration needed to halve the response being measured. Low values mean higher potency, high ones lower potency.
